Converted amounts (≈) assume the structure as drawn.
Legend:
L. mexicana [1] = details: administered orally; cited from earlier work
[2] = system: L. mexicana intracellular amastigotes; type: cell-based, Leishmania mexicana
[3] = Kinetic aqueous solubility; type: physicochemical; details: pH 7.4, Sol. (aqueous solubility)
L. mexicana [4] = assay: Murine model of cutaneous leishmaniasis, footpad lesion size; type: in vivo, BALB/c mice; details: PO 50mg/kg/day for 10 days; p < 0.0001, Mann–Whitney

Cc1ccc(-c2nc3ccccc3s2)cc1NC(=O)c1cc([N+](=O)[O-])c(N2CCN(C)CC2)cc1Cl [compound 4]
efficacy in murine model of cutaneous leishmaniasis (L. mexicana [1]): less efficacious than the positive control, miltefosine

Cc1ccc(-c2nc3ccccc3s2)cc1NC(=O)c1ccc(F)c([N+](=O)[O-])c1 [compound 10]
antileishmanial activity in words ([2]; L. mexicana amastigotes): active

O=C(Nc1cccc(-c2ncco2)c1)c1cc([N+](=O)[O-])c(F)cc1F [compound 71]
solubility [3]: ~9 µM (≈ 3.11 µg/mL)

O=C(Nc1ccc(Cl)c(Cl)c1)c1ccc(N2CCNCC2)c([N+](=O)[O-])c1 [compound 79]
EC50 ([2]; Leishmania mexicana, J774.A1, read-out: L. mexicana EC50, intracellular amastigotes in J774A.1 macrophages, mean ± SD, at least three experiments): 660 nM
lesion size vs vehicle (L. mexicana [4]): significantly smaller lesions at weeks 4 and 5

Reference: article PMC10259451 (Journal of Medicinal Chemistry, 2023)
